According to patent US12258328B2, “6-membered heteroaryl-containing aminopyridine compounds as EGFR inhibitors” (YUHAN CORPORATION, priority 2021, dated 2025):
Read-outs that look alike come from different tables or passages of the source.

Legend:
EGFR wildtype = EGFR wildtype (Homo sapiens, UniProt P00533); test: Biochemical EGFR kinase assay (Lance Ultra TR-FRET), wildtype
How it was run: (§1)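 Enzyme reactions lasted 1 hour at room temperature with test compounds between 0.003 and 10 μM, followed by 10 mM EDTA quench.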

EGFR del19/T790M/C797S = EGFR del19/T790M/C797S (Homo sapiens, UniProt P00533, C797S/DEL746-750/T790M); test: Biochemical EGFR kinase assay (Lance Ultra TR-FRET), triple mutant del19/T790M/C797S
Chain of EGFR del19/T790M/C797S (P00533 with tags, fused parts or gaps DEL746-750/T790M/C797S): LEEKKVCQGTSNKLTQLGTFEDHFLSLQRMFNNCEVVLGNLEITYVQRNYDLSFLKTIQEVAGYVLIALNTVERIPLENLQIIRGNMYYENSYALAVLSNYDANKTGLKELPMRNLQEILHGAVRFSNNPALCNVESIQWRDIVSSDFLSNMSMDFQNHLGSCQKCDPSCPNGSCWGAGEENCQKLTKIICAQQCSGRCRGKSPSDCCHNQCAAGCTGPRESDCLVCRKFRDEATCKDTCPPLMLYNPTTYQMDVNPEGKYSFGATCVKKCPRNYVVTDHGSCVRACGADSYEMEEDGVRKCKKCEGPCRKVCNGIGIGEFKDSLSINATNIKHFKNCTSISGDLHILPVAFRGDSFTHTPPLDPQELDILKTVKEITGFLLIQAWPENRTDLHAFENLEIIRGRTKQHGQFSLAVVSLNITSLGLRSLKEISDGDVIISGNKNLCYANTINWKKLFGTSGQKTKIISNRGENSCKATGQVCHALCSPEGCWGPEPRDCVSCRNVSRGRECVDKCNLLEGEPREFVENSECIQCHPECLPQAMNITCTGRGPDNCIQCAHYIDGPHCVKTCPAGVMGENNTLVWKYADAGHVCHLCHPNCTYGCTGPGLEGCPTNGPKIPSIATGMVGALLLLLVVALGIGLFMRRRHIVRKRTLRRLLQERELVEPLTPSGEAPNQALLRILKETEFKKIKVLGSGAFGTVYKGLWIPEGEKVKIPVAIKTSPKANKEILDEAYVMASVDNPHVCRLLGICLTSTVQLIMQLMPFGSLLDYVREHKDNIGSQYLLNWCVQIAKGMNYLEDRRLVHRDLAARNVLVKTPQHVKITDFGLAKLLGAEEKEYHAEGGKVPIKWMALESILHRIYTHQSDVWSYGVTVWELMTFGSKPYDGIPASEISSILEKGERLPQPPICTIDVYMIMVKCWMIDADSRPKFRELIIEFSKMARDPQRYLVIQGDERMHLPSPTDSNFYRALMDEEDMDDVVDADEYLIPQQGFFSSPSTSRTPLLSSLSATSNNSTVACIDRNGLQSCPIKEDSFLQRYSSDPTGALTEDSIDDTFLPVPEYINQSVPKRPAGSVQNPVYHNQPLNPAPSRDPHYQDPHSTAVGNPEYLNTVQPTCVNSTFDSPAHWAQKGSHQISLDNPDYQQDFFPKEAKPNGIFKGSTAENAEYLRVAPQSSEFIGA
How it was run: as §1

EGFR L858R/C797S = EGFR L858R/C797S (Homo sapiens, UniProt P00533, C797S/L858R); test: Biochemical EGFR kinase assay (Lance Ultra TR-FRET), double mutant L858R/C797S
How it was run: as §1

EGFR del19/C797S = EGFR del19/C797S (Homo sapiens, UniProt P00533, C797S/DEL746-750); test: Biochemical EGFR kinase assay (Lance Ultra TR-FRET), double mutant del19/C797S
Chain of EGFR del19/C797S (P00533 with tags, fused parts or gaps DEL746-750/C797S): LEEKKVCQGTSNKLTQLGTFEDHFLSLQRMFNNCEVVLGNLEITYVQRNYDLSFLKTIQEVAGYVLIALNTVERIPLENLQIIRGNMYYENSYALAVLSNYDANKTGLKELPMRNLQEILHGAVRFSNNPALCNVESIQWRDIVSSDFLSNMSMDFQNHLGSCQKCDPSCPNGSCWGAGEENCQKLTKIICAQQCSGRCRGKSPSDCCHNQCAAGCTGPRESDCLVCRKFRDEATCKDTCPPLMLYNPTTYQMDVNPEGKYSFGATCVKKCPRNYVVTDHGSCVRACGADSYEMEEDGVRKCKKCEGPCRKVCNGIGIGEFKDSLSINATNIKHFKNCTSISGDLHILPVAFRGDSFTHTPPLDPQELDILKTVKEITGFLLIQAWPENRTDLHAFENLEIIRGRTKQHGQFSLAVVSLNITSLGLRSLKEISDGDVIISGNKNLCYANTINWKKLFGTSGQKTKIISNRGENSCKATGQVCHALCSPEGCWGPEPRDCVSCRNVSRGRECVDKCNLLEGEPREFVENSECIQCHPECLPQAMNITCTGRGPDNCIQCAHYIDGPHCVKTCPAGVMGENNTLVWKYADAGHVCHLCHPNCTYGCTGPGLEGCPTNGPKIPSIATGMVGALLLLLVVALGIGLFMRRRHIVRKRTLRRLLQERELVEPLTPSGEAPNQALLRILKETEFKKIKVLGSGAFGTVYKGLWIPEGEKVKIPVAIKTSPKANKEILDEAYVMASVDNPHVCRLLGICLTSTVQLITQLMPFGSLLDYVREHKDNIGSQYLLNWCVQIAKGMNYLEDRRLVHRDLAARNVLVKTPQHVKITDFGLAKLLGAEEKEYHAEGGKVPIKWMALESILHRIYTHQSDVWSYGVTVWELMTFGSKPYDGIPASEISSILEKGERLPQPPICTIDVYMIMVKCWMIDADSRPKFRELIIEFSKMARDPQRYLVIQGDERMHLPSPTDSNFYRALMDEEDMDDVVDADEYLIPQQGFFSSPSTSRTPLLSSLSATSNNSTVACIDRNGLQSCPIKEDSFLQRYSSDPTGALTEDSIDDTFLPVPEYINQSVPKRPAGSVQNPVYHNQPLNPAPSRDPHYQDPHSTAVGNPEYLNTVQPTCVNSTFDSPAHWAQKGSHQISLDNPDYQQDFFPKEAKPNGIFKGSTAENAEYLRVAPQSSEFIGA
How it was run: as §1

EGFR L858R/T790M/C797S = EGFR L858R/T790M/C797S (Homo sapiens, UniProt P00533, C797S/L858R/T790M); test: Biochemical EGFR kinase assay (Lance Ultra TR-FRET), triple mutant L858R/T790M/C797S
Chain of EGFR L858R/T790M/C797S (P00533 25-1210 T790M/C797S/L858R): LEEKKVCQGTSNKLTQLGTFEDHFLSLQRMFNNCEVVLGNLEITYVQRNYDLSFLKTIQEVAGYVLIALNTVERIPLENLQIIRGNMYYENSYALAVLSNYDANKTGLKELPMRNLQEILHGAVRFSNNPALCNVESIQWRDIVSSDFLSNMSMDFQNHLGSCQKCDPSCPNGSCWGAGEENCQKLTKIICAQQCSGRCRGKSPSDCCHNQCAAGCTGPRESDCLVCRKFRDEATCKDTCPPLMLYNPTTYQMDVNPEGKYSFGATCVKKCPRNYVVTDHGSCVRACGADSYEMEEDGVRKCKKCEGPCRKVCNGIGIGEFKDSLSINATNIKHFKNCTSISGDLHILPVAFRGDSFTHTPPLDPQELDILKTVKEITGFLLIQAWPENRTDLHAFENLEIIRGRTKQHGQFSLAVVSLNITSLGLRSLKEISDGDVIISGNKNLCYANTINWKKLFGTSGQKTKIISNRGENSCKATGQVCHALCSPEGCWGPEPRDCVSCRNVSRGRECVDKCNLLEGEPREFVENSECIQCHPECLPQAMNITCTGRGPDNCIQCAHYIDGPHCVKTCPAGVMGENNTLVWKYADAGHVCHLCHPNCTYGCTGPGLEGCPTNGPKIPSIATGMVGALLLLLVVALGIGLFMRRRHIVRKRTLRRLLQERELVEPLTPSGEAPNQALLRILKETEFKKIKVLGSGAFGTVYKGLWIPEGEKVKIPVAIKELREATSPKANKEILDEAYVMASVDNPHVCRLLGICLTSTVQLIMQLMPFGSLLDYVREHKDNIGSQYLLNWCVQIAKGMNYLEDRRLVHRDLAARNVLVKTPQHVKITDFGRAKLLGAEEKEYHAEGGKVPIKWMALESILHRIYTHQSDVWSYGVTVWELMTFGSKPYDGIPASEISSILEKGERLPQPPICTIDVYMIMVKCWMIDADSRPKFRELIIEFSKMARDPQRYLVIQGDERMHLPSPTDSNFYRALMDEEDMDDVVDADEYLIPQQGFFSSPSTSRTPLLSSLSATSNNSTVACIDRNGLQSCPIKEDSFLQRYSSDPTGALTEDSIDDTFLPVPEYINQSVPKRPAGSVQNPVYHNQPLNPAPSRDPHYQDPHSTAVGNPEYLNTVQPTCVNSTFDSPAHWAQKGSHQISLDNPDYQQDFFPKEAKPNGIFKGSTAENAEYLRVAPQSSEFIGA
How it was run: as §1

[1] = IC50 WT (nM) 100 μM ATP, 100 μM ATP
[2] = Km ATP, read-out: IC50 WT (nM) Km ATP
[3] = IC50 del19/T790M/C797S (nM) 100 μM ATP, 100 μM ATP
[4] = Km ATP, read-out: IC50 del19/T790M/C797S (nM) Km ATP
[5] = IC50 L858R/C797S (nM) 100 μM ATP, 100 μM ATP
[6] = Km ATP, read-out: IC50 L858R/C797S (nM) Km ATP
[7] = IC50 del19/C797S (nM) 100 μM ATP, 100 μM ATP
[8] = Km ATP, read-out: IC50 del19/C797S (nM) Km ATP
[9] = IC50 L858R/T790M/C797S (nM) 100 μM ATP, 100 μM ATP
[10] = Km ATP, read-out: IC50 L858R/T790M/C797S (nM) Km ATP
[11] = ATP at Km, read-out: IC50 WT, Km ATP
[12] = ATP at Km, read-out: IC50 del19/T790M/C797S, Km ATP
[13] = IC50 del19/T790M/C797S, 100 μM ATP
[14] = ATP at Km, read-out: IC50 L858R/C797S, Km ATP
[15] = ATP at Km, read-out: IC50 del19/C797S, Km ATP
[16] = ATP at Km, read-out: IC50 L858R/T790M/C797S, Km ATP
[17] = IC50 L858R/T790M/C797S, 100 μM ATP

Chain of EGFR wildtype (P00533 25-1210): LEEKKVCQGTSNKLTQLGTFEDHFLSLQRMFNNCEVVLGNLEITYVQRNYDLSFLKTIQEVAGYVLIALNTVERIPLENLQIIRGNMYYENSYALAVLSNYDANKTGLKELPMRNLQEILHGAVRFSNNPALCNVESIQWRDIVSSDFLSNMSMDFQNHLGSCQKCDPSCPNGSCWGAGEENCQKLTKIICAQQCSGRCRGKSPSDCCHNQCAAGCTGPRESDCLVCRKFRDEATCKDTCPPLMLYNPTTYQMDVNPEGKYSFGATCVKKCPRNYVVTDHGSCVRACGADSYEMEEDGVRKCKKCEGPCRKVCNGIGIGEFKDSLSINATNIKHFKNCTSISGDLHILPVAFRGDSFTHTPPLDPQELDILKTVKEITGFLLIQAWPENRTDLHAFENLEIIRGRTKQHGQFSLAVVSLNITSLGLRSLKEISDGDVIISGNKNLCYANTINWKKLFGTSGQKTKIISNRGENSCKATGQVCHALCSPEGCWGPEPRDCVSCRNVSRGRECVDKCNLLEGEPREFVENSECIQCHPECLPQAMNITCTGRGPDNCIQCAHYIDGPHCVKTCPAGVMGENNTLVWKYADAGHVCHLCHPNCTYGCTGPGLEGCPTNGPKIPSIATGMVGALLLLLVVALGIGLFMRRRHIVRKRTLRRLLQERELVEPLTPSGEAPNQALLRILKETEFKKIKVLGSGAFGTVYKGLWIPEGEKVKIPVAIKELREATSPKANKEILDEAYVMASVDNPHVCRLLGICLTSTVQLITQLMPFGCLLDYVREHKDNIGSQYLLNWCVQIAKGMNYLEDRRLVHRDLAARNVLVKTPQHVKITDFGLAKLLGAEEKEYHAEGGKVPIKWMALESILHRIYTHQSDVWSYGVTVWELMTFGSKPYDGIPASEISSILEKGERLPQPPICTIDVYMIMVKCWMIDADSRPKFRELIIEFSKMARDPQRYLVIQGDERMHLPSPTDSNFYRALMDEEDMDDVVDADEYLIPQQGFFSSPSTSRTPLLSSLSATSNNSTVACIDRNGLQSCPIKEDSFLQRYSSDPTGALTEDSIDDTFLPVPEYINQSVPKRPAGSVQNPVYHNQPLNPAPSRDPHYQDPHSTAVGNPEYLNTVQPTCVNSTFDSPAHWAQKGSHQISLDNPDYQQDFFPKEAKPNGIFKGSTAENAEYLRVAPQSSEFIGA

Structure (SMILES) | IC50 (EGFR wildtype; [1]) [nM] | IC50 (EGFR wildtype; [2]) [nM] | IC50 (EGFR del19/T790M/C797S; [3]) [nM] | IC50 (EGFR del19/T790M/C797S; [4]) [nM] | IC50 (EGFR L858R/C797S; [5]) [nM] | IC50 (EGFR L858R/C797S; [6]) [nM] | IC50 (EGFR del19/C797S; [7]) [nM] | IC50 (EGFR del19/C797S; [8]) [nM] | IC50 (EGFR L858R/T790M/C797S; [9]) [nM] | IC50 (EGFR L858R/T790M/C797S; [10]) [nM] | IC50 (EGFR wildtype; [11]) [nM] | IC50 (EGFR wildtype; IC50 WT, 100 μM ATP) [nM] | IC50 (EGFR del19/T790M/C797S; [12]) [nM] | IC50 (EGFR del19/T790M/C797S; [13]) [nM] | IC50 (EGFR L858R/C797S; [14]) [nM] | IC50 (EGFR L858R/C797S; IC50 L858R/C797S, 100 μM ATP) [nM] | IC50 (EGFR del19/C797S; [15]) [nM] | IC50 (EGFR del19/C797S; IC50 del19/C797S, 100 μM ATP) [nM] | IC50 (EGFR L858R/T790M/C797S; [16]) [nM] | IC50 (EGFR L858R/T790M/C797S; [17]) [nM]
CC(C)(O)c1cnc(-c2cnc(Nc3ccnc(-c4cnn(S(=O)(=O)C5CC5)c4)n3)cc2N[C@H]2CC[C@@H](CO)CC2)cn1 [Example 119, 2-(5-(6-((2-(1-(Cyclopropylsulfonyl)-1H-pyrazol-4-yl)pyrimidin-4-yl)amino)-4-(((1s,4s)-4-(hydroxymethyl)cyclohexyl)amino)pyridin-3-yl)pyrazin-2-yl)propan-2-ol] | 108 | 1 | 0.1 | 0.1 | 0.3 | 0.03 | 0.2 | 0.1 | 0.2 | 0.1 |  |  |  |  |  |  |  |  |  | 
C[C@]1(O)CC[C@@H](Nc2cc(Nc3ccnc(-c4cnn(S(=O)(=O)C5CC5)c4)n3)ncc2-c2ccc(OC(F)(F)F)cn2)CC1 [Example 194, (1s,4s)-4-((6′-((2-(1-(Cyclopropylsulfonyl)-1H-pyrazol-4-yl)pyrimidin-4-yl)amino)-5-(trifluoromethoxy)-[2,3′-bipyridin]-4′-yl)amino)-1-methylcyclohexan-1-ol] |  |  |  |  |  |  |  |  |  |  | 36.7 | > 10000 | 2.5 | 3.4 | 3.9 | 43.7 | 5.5 | 16.9 | 0.6 | 2.2
CN1CCN(C(=O)c2ccc(-c3cnc(Nc4ccnc(-c5cnn(S(=O)(=O)C6CC6)c5)n4)cc3N[C@H]3CC[C@@H](CN(C)C)CC3)nc2)CC1 [Example 204, (6′-((2-(1-(Cyclopropylsulfonyl)-1H-pyrazol-4-yl)pyrimidin-4-yl)amino)-4′-(((1s,4s)-4-((dimethylamino)methyl)cyclohexyl)amino)-[2,3′-bipyridin]-5-yl)(4-methylpiperazin-1-yl)methanone] |  |  |  |  |  |  |  |  |  |  | 0.4 | 124 | 0.1 | 0.1 | 0.1 | 1 | 0.2 | 0.2 | 0.1 | 0.1
FC(F)Cn1cc(-c2nccc(Nc3cc(N[C@H]4CC[C@@H](F)CC4)c(-c4ccc(CN5CCOCC5)cn4)cn3)n2)cn1 [Example 136, N^6′-(2-(1-(2,2-difluoroethyl)-1H-pyrazol-4-yl)pyrimidin-4-yl)-N^4′-((1s,4s)-4-fluorocyclohexyl)-5-(morpholinomethyl)-[2,3′-bipyridine]-4′,6′-diamine] |  | 69.8 |  | 0.5 |  | 6.4 |  | 19.1 |  | 0.2 |  |  |  |  |  |  |  |  |  | 
COc1cnc(-c2cnc(Nc3ccnc(-c4cnn(S(=O)(=O)C5CC5)c4)n3)cc2N[C@H]2CC[C@@](C)(O)CC2)cn1 [Example 56, (1s,4s)-4-((2-((2-(1-(Cyclopropylsulfonyl)-1H-pyrazol-4-yl)pyrimidin-4-yl)amino)-5-(5-methoxypyrazin-2-yl)pyridin-4-yl)amino)-1-methylcyclohexan-1-ol] | > 10000 | 169 | 1.4 |  | 122 |  | 8.8 | 5.9 | 2.4 |  |  |  |  |  |  |  |  |  |  | 
O=S(=O)(C1CC1)n1cc(-c2nccc(Nc3cc(N[C@H]4CC[C@@H](CO)CC4)c(-c4cccc(F)n4)cn3)n2)cn1 [Example 272, ((1s,4s)-4-((6′-((2-(1-(Cyclopropylsulfonyl)-1H-pyrazol-4-yl)pyrimidin-4-yl)amino)-6-fluoro-[2,3′-bipyridin]-4′-yl)amino)cyclohexyl)methanol] |  |  |  |  |  |  |  |  |  |  | 1.4 | 495 | 0.3 | 0.5 | 1 | 2.5 | 0.6 | 0.7 | 0.1 | 0.3
CC(C)(O)[C@H]1CC[C@@H](Nc2cc(Nc3ccnc(-c4cnn(S(=O)(=O)C5CC5)c4)n3)ncc2-c2ccc(N3CCCC3)cn2)CC1 [Example 82, 2-((1s,4s)-4-((6′-((2-(1-(Cyclopropylsulfonyl)-1H-pyrazol-4-yl)pyrimidin-4-yl)amino)-5-(pyrrolidin-1-yl)-[2,3′-bipyridin]-4′-yl)amino)cyclohexyl)propan-2-ol] | > 10000 | 29.6 | 10.5 | 6.5 | 73.3 | 7.8 | 13.3 | 7.9 | 15.4 | 2.8 |  |  |  |  |  |  |  |  |  | 
CN1CCC(Oc2ccc(-c3cnc(Nc4ccnc(-c5cnn(S(=O)(=O)C6CC6)c5)n4)cc3NC3CCC(F)(CO)CC3)nc2)CC1 (stereo not drawn) [Example 259, (4-((6′-((2-(1-(Cyclopropylsulfonyl)-1H-pyrazol-4-yl)pyrimidin-4-yl)amino)-5-((1-methylpiperidin-4-yl)oxy)-[2,3′-bipyridin]-4′-yl)amino)-1-fluorocyclohexyl)methanol] |  |  |  |  |  |  |  |  |  |  | 9 |  | 1 |  | 0.2 |  | 1.9 |  | 0.4 | 
CC(C)(O)c1ccc(-c2cnc(Nc3ccnc(-c4cnn(S(=O)(=O)C5CC5)c4)n3)cc2NC2CCC(F)(F)CC2)nc1 [Example 175, 2-(6′-((2-(1-(Cyclopropylsulfonyl)-1H-pyrazol-4-yl)pyrimidin-4-yl)amino)-4′-((4,4-difluorocyclohexyl)amino)-[2,3′-bipyridin]-5-yl)propan-2-ol] |  |  |  |  |  |  |  |  |  |  | 90.3 |  | 2.4 |  | 3.9 |  | 20.4 |  | 1.1 | 
CN1CCC(Oc2ccc(-c3cnc(Nc4ccnc(-c5cnn(S(=O)(=O)C6CC6)c5)n4)cc3N[C@H]3CC[C@@H](CO)CC3)nc2)CC1 [Example 251, ((1s,4s)-4-((6′-((2-(1-(Cyclopropylsulfonyl)-1H-pyrazol-4-yl)pyrimidin-4-yl)amino)-5-((1-methylpiperidin-4-yl)oxy)-[2,3′-bipyridin]-4′-yl)amino)cyclohexyl)methanol] |  |  |  |  |  |  |  |  |  |  | 0.2 |  | 0.5 |  | 0.3 |  | 0.2 |  | 0.1 | 
CC1(O)CCC(Nc2cc(Nc3ccnc(-c4cnn(S(=O)(=O)C5CC5)c4)n3)ncc2-c2cc(CN3CC(O)C3)ccn2)CC1 (stereo not drawn) [Example 288, 1-((6′-((2-(1-(Cyclopropylsulfonyl)-1H-pyrazol-4-yl)pyrimidin-4-yl)amino)-4′-(((1s,4s)-4-hydroxy-4-methylcyclohexyl)amino)-[2,3′-bipyridin]-4-yl)methyl) azetidin-3-ol] |  |  |  |  |  |  |  |  |  |  | 0.7 | 2000 | 0.2 | 0.3 | 0.3 | 6.8 | 0.2 | 0.5 | 0.1 | 0.2
CN(C)C[C@H]1CC[C@@H](Nc2cc(Nc3ccnc(-c4cnn(S(=O)(=O)C5CC5)c4)n3)ncc2-c2ccc(C(C)(C)O)cn2)CC1 [Example 171, 2-(6′-((2-(1-(Cyclopropylsulfonyl)-1H-pyrazol-4-yl)pyrimidin-4-yl)amino)-4′-(((1s,4s)-4-((dimethylamino)methyl)cyclohexyl)amino)-[2,3′-bipyridin]-5-yl)propan-2-ol] |  |  |  |  |  |  |  |  |  |  | 0.2 | 67.9 | 0.3 | 0.5 | 0.2 | 0.3 | 0.1 | 0.3 | 0.1 | 0.2
CC(C)(O)[C@H]1CC[C@@H](Nc2cc(Nc3ccnc(-c4cnn(S(=O)(=O)C5CC5)c4)n3)ncc2-c2ccc(CO)cn2)CC1 [Example 24, 2-((1s,4s)-4-((6′-((2-(1-(Cyclopropylsulfonyl)-1H-pyrazol-4-yl)pyrimidin-4-yl)amino)-5-(hydroxymethyl)-[2,3′-bipyridin]-4′-yl)amino)cyclohexyl)propan-2-ol] | > 10000 | 2.8 | 8.4 | 1 | 3.5 | 0.7 | 2.2 | 1 | 0.9 |  |  |  |  |  |  |  |  |  |  | 
CN1CCN(Cc2cccc(-c3cnc(Nc4ccnc(-c5cnn(S(=O)(=O)C6CC6)c5)n4)cc3N[C@H]3CC[C@@](C)(O)CC3)n2)CC1 [Example 28, (1s,4s)-4-((6′-((2-(1-(Cyclopropylsulfonyl)-1H-pyrazol-4-yl)pyrimidin-4-yl)amino)-6-((4-methylpiperazin-1-yl)methyl)-[2,3′-bipyridin]-4′-yl)amino)-1-methylcyclohexan-1-ol] | 1530 |  | 0.1 |  | 1.6 |  | 0.6 |  | 0.1 |  |  |  |  |  |  |  |  |  |  | 
